From patent US11518754B2, “Radiolabeled pharmaceuticals and methods of making and using same” (YALE UNIVERSITY, priority 2017, dated 2022)

How the values were obtained:
[1] = PET imaging studies in rhesus monkeys; conditions: rhesus monkey, in vivo, Distribution volume (VT), 1T model
Protocol: (§1) Experiments were performed in rhesus monkeys (Macaca mulatta). Rhesus monkeys were sedated using intramuscular (i.m.) injection of ketamine and glycopyrrolate approximately 2 hours before the PET scan and anesthesia was maintained with isoflurane (1.5%-2.5%) for the duration of the experiments. Baseline PET scans were obtained after intravenous (i.v.) injection of ^11C-3, ^18F-3, ^18F-4, ^18F-5, ^18F-10, ^18F-11, or ^18F-12.
(§2) Arterial blood samples were collected during the PET scans to calculate the plasma input function and to determine the unmetabolized parent fraction using the automatic column-switching HPLC system. Plasma free fraction (fp) was measured in triplicate using the ultrafiltration method.
(§3) PET scans of the brain were acquired using the FOCUS 220 PET scanner (Siemens Preclinical Solutions) with a reconstructed image resolution of approximately 1.5 mm. After a transmission scan, the radioligand was injected i.v. as a 3 min slow bolus by an infusion pump (PHD 22/2000; Harvard Apparatus). List-mode data were acquired for 120-180 min and binned into sinograms with an applicable number of frames. Scan data were reconstructed with a Fourier rebinning/filtered backprojection algorithm with corrections for attenuation, scanner normalization, radiation scatter, and randoms. Regions of interest were manually delineated on a single representative anatomic rhesus monkey MR image registered to a template image. The regions used in this study were amygdala, brain stem, caudate, centrum semiovale, cerebellum, cingulate cortex, frontal cortex, globus pallidus, insular cortex, nucleus accumbens, occipital cortex, pons, putamen, temporal cortex, and thalamus. Registration parameters were obtained to apply the regions of interest to individual PET scans, and regional time-activity curves were generated. Regional time-activity curves of the brain were analyzed with the 1-tissue-(1T) compartment model. Fit quality was compared with the 2-tissue model and the multilinear analysis method to calculate VT.
(§4) Typical injected radioactivity amount was 0.5-5 mCi per injection, with typical injected mass amount of 1-10 μg.
(§5) Specific binding to SV2A was further examined for ^11C-3, ^18F-3, and ^18F-11 in blocking studies, where levetiracetam or UCB-J ((R)-3) was i.v. infused before injection of the radiotracers.

SV2A = SV2A (Macaca mulatta, UniProt H9EQH8); assay: PET imaging studies in rhesus monkeys; conditions: for Binding potential (BPND): from VT, centrum semiovale as reference region; for Displacement of radiotracer binding by levetiracetam: levetiracetam 30 mg/kg i.v. infused 60 or 90 min post injection of the radiotracer; for time to SUV peak in gray matter regions: rhesus monkey brain after i.v. injection
Protocol: as §1, §2, §3, §4, §5

[2] = Plasma free fraction (fp) by ultrafiltration method; format: in vitro ADME, rhesus monkeys (Macaca mulatta); conditions: plasma (from arterial blood samples), rhesus monkey plasma

Chain of SV2A (H9EQH8 1-742): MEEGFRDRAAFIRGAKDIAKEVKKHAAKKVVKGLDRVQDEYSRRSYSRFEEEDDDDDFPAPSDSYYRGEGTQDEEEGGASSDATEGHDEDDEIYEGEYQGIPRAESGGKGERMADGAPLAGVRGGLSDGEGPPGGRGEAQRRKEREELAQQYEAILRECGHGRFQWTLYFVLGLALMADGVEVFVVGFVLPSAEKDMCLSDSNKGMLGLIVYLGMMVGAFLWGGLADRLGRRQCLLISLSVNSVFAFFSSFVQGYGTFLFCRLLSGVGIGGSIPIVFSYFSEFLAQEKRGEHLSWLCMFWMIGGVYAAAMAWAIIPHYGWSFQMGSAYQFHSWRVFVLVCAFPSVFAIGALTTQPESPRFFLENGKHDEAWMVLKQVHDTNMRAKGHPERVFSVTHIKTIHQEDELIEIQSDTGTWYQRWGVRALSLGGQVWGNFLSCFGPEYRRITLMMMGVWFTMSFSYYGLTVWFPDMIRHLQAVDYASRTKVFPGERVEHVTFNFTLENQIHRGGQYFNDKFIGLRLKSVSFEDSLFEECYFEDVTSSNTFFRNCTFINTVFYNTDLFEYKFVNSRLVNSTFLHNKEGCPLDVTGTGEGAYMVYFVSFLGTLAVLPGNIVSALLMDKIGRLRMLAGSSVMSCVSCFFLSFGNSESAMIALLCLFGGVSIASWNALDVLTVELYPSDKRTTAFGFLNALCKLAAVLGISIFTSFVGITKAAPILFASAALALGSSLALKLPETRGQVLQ

Row | Structure (SMILES) | Kp ([1]; Amygdala) | Kp ([1]; Brainstem) | Kp ([1]; Caudate nucleus) | Kp ([1]; Centrum semiovale) | Kp ([1]; Cerebellum) | Kp ([1]; Cingulate cortex) | Kp ([1]; Frontal cortex) | Kp ([1]; Globus pallidus) | Kp ([1]; Hippocampus) | Kp ([1]; Insular cortex) | Kp ([1]; Nucleus accumbens) | Kp ([1]; Occipital cortex) | Kp ([1]; Pons) | Kp ([1]; Putamen) | Kp ([1]; Temporal cortex) | Kp ([1]; Thalamus) | Binding potential (BPND) (SV2A; Amygdala) | Binding potential (BPND) (SV2A; Brainstem) | Binding potential (BPND) (SV2A; Caudate nucleus) | Binding potential (BPND) (SV2A; Cerebellum) | also measured
1 | Cc1cnccc1CN1CC(c2cc(F)cc(F)c2)CC1=O (stereo not drawn) [^18F-5, 4-(3,5-Difluorophenyl)-1-((3-methylpyridin-4-yl)methyl)pyrrolidin-2-one] | 20.5 ± 6 | 15 ± 4 | 31.9 ± 4.8 | 8.3 ± 2.4 | 26.1 ± 6.5 | 45 ± 9.2 | 43 ± 8.1 | 19.3 ± 2.4 | 27.3 ± 4 | 42.3 ± 9.1 | 41.9 ± 7.8 | 39.3 ± 10.7 | 14.9 ± 4.1 | 32.8 ± 5.2 | 37.9 ± 9.4 | 32.7 ± 1.9 | 1.70 ± 1.51 | 0.59 ± 0.57 | 2.09 ± 1.37 | 2.16 ± 0.15 | Binding potential (BPND) (SV2A; Cingulate cortex): 4.49 ± 0.50; Binding potential (BPND) (SV2A; Frontal cortex): 4.26 ± 0.57; Binding potential (BPND) (SV2A; Globus pallidus): 1.04 ± 0.09; Binding potential (BPND) (SV2A; Hippocampus): 2.36 ± 0.51; Binding potential (BPND) (SV2A; Insular cortex): 4.16 ± 0.42; Binding potential (BPND) (SV2A; Nucleus accumbens): 3.09 ± 2.04; Binding potential (BPND) (SV2A; Occipital cortex): 3.75 ± 0.11; Binding potential (BPND) (SV2A; Pons): 0.80 ± 0.03; Binding potential (BPND) (SV2A; Putamen): 3.03 ± 0.55; Binding potential (BPND) (SV2A; Temporal cortex): 3.60 ± 0.22; Binding potential (BPND) (SV2A; Thalamus): 3.08 ± 0.96; Displacement of radiotracer binding by levetiracetam (SV2A): reduced the binding of these tracers to a significant extent; time to SUV peak in gray matter regions (SV2A): slower; fraction unbound [2]: 0.42 ± 0.03
2 | O=C1CC(c2cc(F)c(F)c(F)c2)CN1Cc1ccncc1F (stereo not drawn) [^18F-10, 1-((3-fluoropyridin-4-yl)methyl)-4-(3,4,5-trifluorophenyl)pyrrolidin-2-one] | 9.8 | 10.2 | 13.8 | 10.1 | 12.3 | 16 | 14.7 | 11.5 | 11.3 | 14.9 | 14.4 | 15.5 | 10.5 | 14 | 14 | 12 | −0.03 | 0.01 | 0.37 | 0.22 | Binding potential (BPND) (SV2A; Cingulate cortex): 0.59; Binding potential (BPND) (SV2A; Frontal cortex): 0.46; Binding potential (BPND) (SV2A; Globus pallidus): 0.14; Binding potential (BPND) (SV2A; Hippocampus): 0.12; Binding potential (BPND) (SV2A; Insular cortex): 0.48; Binding potential (BPND) (SV2A; Nucleus accumbens): 0.43; Binding potential (BPND) (SV2A; Occipital cortex): 0.53; Binding potential (BPND) (SV2A; Pons): 0.04; Binding potential (BPND) (SV2A; Putamen): 0.39; Binding potential (BPND) (SV2A; Temporal cortex): 0.39; Binding potential (BPND) (SV2A; Thalamus): 0.19; time to SUV peak in gray matter regions (SV2A): ≤ 10 min; fraction unbound [2]: 0.52
3 | Cc1cnccc1CN1CC(c2cccc(F)c2)CC1=O (stereo not drawn) [^18F-11, 4-(3-Fluorophenyl)-1-((3-methylpyridin-4-yl)methyl)pyrrolidin-2-one] | 8.7 ± 2.4 | 6.6 ± 2.9 | 13.2 ± 2.6 | 4.4 ± 1.5 | 10.8 ± 2.6 | 18.2 ± 2.2 | 17.4 ± 2.2 | 8.8 ± 1.8 | 10.7 ± 2.8 | 16.8 ± 2.6 | 16.4 ± 2.9 | 15.7 ± 2.7 | 6.4 ± 3.5 | 13.6 ± 2.3 | 14.7 ± 2.5 | 13.2 ± 2.1 | 1.05 ± 0.29 | 0.53 ± 0.42 | 2.29 ± 0.88 | 1.59 ± 0.76 | Binding potential (BPND) (SV2A; Cingulate cortex): 3.49 ± 1.52; Binding potential (BPND) (SV2A; Frontal cortex): 3.29 ± 1.40; Binding potential (BPND) (SV2A; Globus pallidus): 1.13 ± 0.61; Binding potential (BPND) (SV2A; Hippocampus): 1.58 ± 0.59; Binding potential (BPND) (SV2A; Insular cortex): 3.00 ± 1.21; Binding potential (BPND) (SV2A; Nucleus accumbens): 3.12 ± 1.26; Binding potential (BPND) (SV2A; Occipital cortex): 2.90 ± 1.50; Binding potential (BPND) (SV2A; Pons): 0.46 ± 0.51; Binding potential (BPND) (SV2A; Putamen): 2.21 ± 0.89; Binding potential (BPND) (SV2A; Temporal cortex): 2.63 ± 1.33; Binding potential (BPND) (SV2A; Thalamus): 2.18 ± 0.77; Displacement of radiotracer binding by levetiracetam (SV2A): reduced the binding of these tracers to a significant extent; Uptake of radiotracer in blocking studies (SV2A; levetiracetam (30 mg/kg) or UCB-J (150 μg/kg) i.v. 10 min before radiotracer injection): reduced to background levels; time to SUV peak in gray matter regions (SV2A): ≤ 10 min; fraction unbound [2]: 0.42 ± 0.02
